Format in all cases: functional
Experiment [1] concerns DU-145. The experiment can be described thus: Growth inhibition of human DU145 cells.
The subject of experiment [2] is NCI-H460. Nature of the experiment: Growth inhibition of human NCI-H460 cells.
The test system of experiment [3] is BXPC-3. Nature of the experiment: Growth inhibition of human BxPC3 cells.
Experiment [4] deals with SW-1736. The experiment can be described thus: Growth inhibition of human SW1736 cells.
Experiment [5] has as its system FaDu. The experiment can be described thus: Growth inhibition of human FADU cells.
Experiment [6] can be described thus: Growth inhibition of human KAT4 cells. Particulars: KAT-4.
For experiment [7], the system named is P388. The experiment can be described thus: Growth inhibition of mouse P388 cells. Particulars: read-out: ED50 (the source's name).
The test system of experiment [8] is RPMI-7951. The experiment can be described thus: Growth inhibition of human RPMI7951 cells.
Experiment [9] concerns U-251. The experiment can be described thus: Growth inhibition of human U251 cells.

Each structure is given as a SMILES string. Converted amounts (≈) assume the structure as drawn.

For orientation: GI50 means the concentration giving 50% growth inhibition. For the compound `CC1(C)CCC[C@]2(C)[C@H]3C[C@@H](O)[C@]4(C)c5cocc5[C@H](O)C[C@H]4[C@]3(C)CC[C@@H]12` [SESTERSTATIN 4], the GI50 was determined as 1.6 mg/L (≈ 4.14 µM) in experiment [1]; 1.8 mg/L (≈ 4.66 µM) in [2]; 1.6 mg/L (≈ 4.14 µM) in experiment [3]; 2.1 mg/L (≈ 5.43 µM) in [4]; 2 mg/L (≈ 5.17 µM) in experiment [5]; 2 mg/L (≈ 5.17 µM) in experiment [6]. Moreover, in [7], the EC50 stood at 4.9 mg/L (≈ 12.7 µM).
`C[C@@]1(CO)CCC[C@]2(C)[C@H]3C[C@@H](O)[C@]4(C)C5=C(CC[C@H]4[C@]3(C)CC[C@@H]12)COC5=O` [SESTERSTATIN 3]: the EC50 in [7] came out at 4.3 mg/L (≈ 10.7 µM).
Turning to `CC1(C)CCC[C@]2(C)[C@H]3C[C@@H](O)[C@]4(C)C5=C(C(=O)O[C@H]5O)[C@@H](O)C[C@H]4[C@]3(C)CC[C@@H]12` [SESTERSTATIN 6], the GI50 in experiment [1] came to 0.37 mg/L (≈ 0.884 µM); in [2], 0.18 mg/L (≈ 0.43 µM); in [3] it was 0.44 mg/L (≈ 1.05 µM); in experiment [4], 0.87 mg/L (≈ 2.08 µM); in experiment [5], 0.89 mg/L (≈ 2.13 µM); in [6], 0.4 mg/L (≈ 0.956 µM). Besides, the EC50 in experiment [7] worked out at 0.17 mg/L (≈ 0.406 µM).
With `CC1(C)[C@@H](O)CC[C@]2(C)[C@H]3C[C@@H](O)[C@]4(C)C5=C(CC[C@H]4[C@]3(C)CC[C@@H]12)COC5=O` [SESTERSTATIN 1], in experiment [7], the EC50 was 0.46 mg/L (≈ 1.14 µM).
Take `CC1(C)CCC[C@]2(C)[C@H]3C[C@@H](O)[C@]4(C)c5cocc5[C@@H](O)C[C@H]4[C@]3(C)CC[C@@H]12` [SESTERSTATIN 5]: the GI50 came to 2.1 mg/L (≈ 5.43 µM) in experiment [8]; 1.9 mg/L (≈ 4.91 µM) in experiment [1]; 2.5 mg/L (≈ 6.47 µM) in experiment [2]; 2.2 mg/L (≈ 5.69 µM) in experiment [3]; 1.9 mg/L (≈ 4.91 µM) in experiment [9]; 1.9 mg/L (≈ 4.91 µM) in experiment [5]. In addition, in experiment [7], the EC50 is more than 10 mg/L.
Take `C[C@]1(CO)CCC[C@]2(C)[C@H]3C[C@@H](O)[C@]4(C)C5=C(CC[C@H]4[C@]3(C)CC[C@@H]12)COC5=O` [SESTERSTATIN 2]: the EC50 in experiment [7] worked out at 4.2 mg/L (≈ 10.4 µM).

Source of the values: ChEMBL document CHEMBL1141781, “Antineoplastic agents. 542. Isolation and structure of sesterstatin 6 from the Indian Ocean sponge Hyrtios erecta” (2005).
